Laboratory results reported in US4172941A, “7-[2-[ω-(1,3-Dit hiolan-2-imino)substituted]-acetylamino]cephalosporanic acid derivatives” (Richardson-Merrell Inc., priority 1978, dated 1979).
Values after ≈ are worked out from the molar mass of the structure shown.

Experiments:
[1] = system: Diplococcus pneumonae; experiment: in vitro minimal inhibitory concentration, two-fold serial dilutions in trypticase soy broth; assay type: cell-based; conditions: 24 hours at 37° C.
Method: (§1) The following example illustrates the in vitro activity of the compounds of this invention.
(§2) Two-fold serial dilutions of the test compounds are made in trypticase soy broth. A series of tubes of broth containing different concentrations of the test compounds are inoculated with the particular bacterial culture used for in vitro activity. The inoculated tubes are examined for the inhibition of bacterial growth after 24 hours of incubation at 37° C. The following table summarizes the minimal inhibitory concentration (MIC) for various bacterial test cultures using the following compounds: […]

[2] = system: Escherichia coli; experiment: as above; assay type: cell-based; conditions: 24 hours at 37° C.
Method: as §1, §2

[3] = system: Salmonella schottmuelleri; experiment: as above; assay type: cell-based; conditions: 24 hours at 37° C.
Method: as §1, §2

[4] = system: Staphylococcus aureus; experiment: as above; assay type: cell-based; conditions: 24 hours at 37° C.
Method: as §1, §2

[5] = system: Streptococcus pyogenes; experiment: as above; assay type: cell-based; conditions: 24 hours at 37° C.
Method: as §1, §2

[6] = system: Streptococcus pyogenes; experiment: in vivo protection of mice challenged with a fatal bacterial infection; conditions: sc, subcutaneous, 1 and 4 hours after challenge, dose per treatment protecting fifty percent
Method: (§3) The following example illustrates the in vivo activity of the compounds of this invention.
(§4) Several groups of 10 mice are challenged with a fatal bacterial infection. Various dose levels of the test compound are administered orally or subcutaneously to separate groups of these animals 1 and 4 hours after challenge. After three of four days, depending upon the test organism, the number of survivors are recorded at each dose level and the dose required per treatment to protect fifty percent of the infected mice (ED50) is calculated by the method described by Reed and Muench, Amer. J. Hyg. 27, 493-497 (1938).

[7] = system: Diplococcus pneumoniae; experiment: as above; conditions: Streptococcus pneumoniae, 1 and 4 hours after challenge, dose per treatment protecting fifty percent
Method: as §3, §4

[8] = system: Salmonella schotmuelleri; experiment: as above; conditions: sc, subcutaneous, 1 and 4 hours after challenge, dose per treatment protecting fifty percent
Method: as §3, §4

Compound	MIC [1] [µg/mL]	MIC [2] [µg/mL]	MIC [3] [µg/mL]	MIC [4] [µg/mL]	MIC [5] [µg/mL]	ED50 [6] [mg/kg]	ED50 ([7]; po, per os) [mg/kg]	ED50 ([7]; sc, subcutaneous) [mg/kg]	ED50 [8] [mg/kg]
CC(=O)OCC1=C(C(=O)O)N2C(=O)C(NC(=O)CN=C3SCCS3)C2SC1 (stereo not drawn) [Compound A, 7-[2-(1,3-dithiolan-2-imino)acetylamino]cephalosporanic acid]	0.1 (≈ 0.232 µM)	50 (≈ 116 µM)	12.5 (≈ 29 µM)	0.4 (≈ 0.927 µM)	0.4 (≈ 0.927 µM)	15.3	–	–	–
CC1=C(C(=O)O)N2C(=O)C(NC(=O)C(N=C3SCCS3)c3ccccc3)C2SC1 (stereo not drawn) [Compound B, 7-[2-(1,3-dithiolan-2-imino)-2-phenylacetylamino]desacetoxycephalosporanic acid]	12.5 (≈ 27.8 µM)	> 100	> 100	25 (≈ 55.6 µM)	6.2 (≈ 13.8 µM)	48	–	–	–
CC1=C(C(=O)O)N2C(=O)C(NC(=O)C(N)c3ccc(N=C4SCCS4)cc3)C2SC1 (stereo not drawn) [Compound C, 7-[2-amino-2-[p-(1,3-dithiolan-2-imino)phenyl]acetylamino]desacetoxycephalosporanic acid]	≤ 0.05	> 100	> 100	3.1 (≈ 6.67 µM)	≤ 0.05	0.5	4.1	5	> 100
CC(=O)OCC1=C(C(=O)O)N2C(=O)C(NC(=O)C(O)c3ccc(N=C4SCCS4)cc3)C2SC1 (stereo not drawn) [Compound D, 7-[2-[p-(1,3-dithiolan-2-imino)phenyl]-2-hydroxyacetylamino]cephalosporanic acid]	< 0.05	200 (≈ 382 µM)	50 (≈ 95.5 µM)	0.4 (≈ 0.764 µM)	< 0.05	2.2	–	–	–
